Assay results published in patent US9006487B2, “Amine-containing lipids and uses thereof” (Massachusetts Institute of Technology, priority 2005, dated 2015).

Assay: DNA delivery: raw luciferase expression (relative light units) of best-transfecting lipids
Format: cell-based
Details: 300 ng of DNA per well
Procedure: Raw values for luciferase expression (relative lights units) of best-transfecting lipids at lipid/DNA (w/w) ratios listed. 300 ng of DNA was added per well.

Compound | Raw values for luciferase expression (lipid/DNA 2.5 w/w) | Raw values for luciferase expression (lipid/DNA 5 w/w) | Raw values for luciferase expression (lipid/DNA 10 w/w) | Raw values for luciferase expression (lipid/DNA 15 w/w)
CCCCCCCCCCCCCCNC(=O)CCN(CCCO)CCC(=O)NCCCCCCCCCCCCCC [NF20] | 1814886 relative lights units | 1801431 relative lights units | – | –
CCCCCCCCCCCCCCNC(=O)CCN(CCC(=O)NCCCCCCCCCCCCCC)C(CO)CO [NF25] | 2473702 relative lights units | 1366194 relative lights units | – | –
CCCCCCCCCCCCCCNC(=O)CCN(C)CCCN(C)CCC(=O)NCCCCCCCCCCCCCC [NF63] | 1141469 relative lights units | 865897 relative lights units | 3031718 relative lights units | 1138429 relative lights units
CCCCCCCCCCCCCCNC(=O)CCN(CCCN1CCOCC1)CCC(=O)NCCCCCCCCCCCCCC [NF91] | 1993690 relative lights units | 1670695 relative lights units | – | –
CCCCCCCCCCCCCCCNC(=O)CCN(CC)CCN(CC)CCC(=O)NCCCCCCCCCCCCCCC [NG61] | 1452027 relative lights units | 765795 relative lights units | – | –
CCCCCCCCCCCCCCCNC(=O)CCN(CCC(=O)NCCCCCCCCCCCCCCC)CCC1CCCN1C (stereo not shown) [NG77] | 972002 relative lights units | 1184771 relative lights units | – | –
CCCCCCCCCCCCCCCNC(=O)CCN(CCC(=O)NCCCCCCCCCCCCCCC)CCN(CCO)CCO [NG86] | 1357355 relative lights units | 1521687 relative lights units | 1513703 relative lights units | 1223360 relative lights units
CCCCCCCCCCCCCCCNC(=O)CCN(CCCN(CCO)CCO)CCC(=O)NCCCCCCCCCCCCCCC [NG87] | 823764 relative lights units | 1005875 relative lights units | – | –
CCCCCCCCCCCCCCCNC(=O)CCN(C)CCN(CCC(=O)NCCCCCCCCCCCCCCC)CCC(=O)NCCCCCCCCCCCCCCC [NG95] | – | – | 834849 relative lights units | 1208120 relative lights units
CCCCCCCCCCCCCCCCNC(=O)CCN(CCN(CCC(=O)NCCCCCCCCCCCCCCCC)C(C)C)C(C)C [NP62] | 1443678 relative lights units | 33188 relative lights units | – | –
CCCCCCCCCCCCCCCCNC(=O)CCN(C)CCCN(C)CCC(=O)NCCCCCCCCCCCCCCCC [NP63] | 1180418 relative lights units | 1543275 relative lights units | 1388102 relative lights units | 798342 relative lights units
CCCCCCCCCCCCCCCCNC(=O)CCN(CCC(=O)NCCCCCCCCCCCCCCCC)CCN(CCO)CCO [NP86] | – | – | 595340 relative lights units | 1323915 relative lights units
CCCCCCCCCCCCCCCCNC(=O)CCN(CCCN(CCO)CCO)CCC(=O)NCCCCCCCCCCCCCCCC [NP87] | – | – | 1207376 relative lights units | 1192838 relative lights units
CCCCCCCCCCCCCCCCNC(=O)CCN(CCC(=O)NCCCCCCCCCCCCCCCC)CCN(CCC(=O)NCCCCCCCCCCCCCCCC)CCC(=O)NCCCCCCCCCCCCCCCC [NP99] | 3202948 relative lights units | 9767 relative lights units | – | –
